Results taken from patent publication US20220323427A1, “SOMATOSTATIN RECEPTOR TYPE 5 AGONIST FOR THE TREATMENT OF HYPERINSULINISM” (Crinetics Pharmaceuticals, Inc., priority 2021, published 2022).

Columns and labels:
[1] = target: T1, human somatostatin receptor subtype 5 (Homo sapiens, UniProt P35346); assay: cAMP assay for SST5R; type: cell-based
T1 construct: expressed in transfected cells
Source text: (§1) General overview: All five SSTR subtypes are Gi coupled G-protein coupled receptors (GPCRs) that lead to decreases in intracellular cyclic AMP (cAMP) when activated by an agonist. Therefore, measurement of intracellular cAMP levels can be used to assess whether compounds of the invention are agonists of SSTR subtypes (John Kelly, Troy Stevens, W. Joseph Thompson, and Roland Seifert, Current Protocols in Pharmacology, 2005, 2.2.1-2.2). One example of an intracellular cAMP assay is described below.
(§2) Four days prior to the assay, 2,000 Chinese hamster ovary cells (CHO-K1, ATCC #CCL-61) stably expressing the human somatostatin receptor subtype 5 are plated in each well of a 96-well tissue culture-treated plate in Ham's F12 growth media (ThermoFisher #10-080-CM) supplemented with 10% donor bovine serum (Gemini Bio-Products #100-506), 100 U/mL penicillin; 100 μg/mL streptomycin; 2 mM L-glutamine (Gemini Bio-Products #400-110) and 0.25 mg/mL G418 Sulfate (GoldBio #108321-42-2). The cells are cultured at 37° C., 5% CO2 and 95% humidity. […] The time-resolved fluorescent signal is read with a Tecan M1000Pro multiplate reader. The intracellular cAMP concentrations are calculated by regression to a standard curve and are plotted vs. the concentration of the compounds of the invention and the EC50 of the compounds are calculated using standard methods. […]

[2] = test system: glucose stimulated insulin secretion; assay: Intravenous glucose tolerance test (IVGTT), SAD; type: in vivo, human
Procedure: The results from the IVGTT will help inform selection of the single dose that will be used in SAD 1b and SAD 1c and also to inform the doses used in the MAD.
A summary of the procedure is as follows: Collect pre-IV bolus blood samples for measurement of PG, insulin, and C-peptide. At 1 hour after study drug dosing/Time 60 (±30 minutes) or nominal time, administer an IV bolus of glucose at 300 mg/kg in 20% solution, within 60 seconds (use the most recent body weight measurement for glucose dose). Collect post-IV bolus blood samples for measurement of PG, insulin, and C-peptide.

[3] = test system: glyburide-induced hyperinsulinemic hypoglycemia; assay: Glyburide-induced hyperinsulinemic hypoglycemia model in rats; type: in vivo, Sprague Dawley rats; conditions: for Blood glucose levels reached over 5 hours: male rats, 2 h after glyburide, vehicle 94 mg/dL
Procedure: Sulfonylurea drugs, such as glyburide, inhibit KATP channels and can be used in rat preclinical models to mimic the disease state of congenital HI patients with KATP channel mutations.
This model of glyburide-induced hyperinsulinemic hypoglycemia was used to assess the pharmacodynamic effects of Compound 1 after a single administration in male and female adult rats and male neonatal rats.
Glyburide was administered to raise insulin levels and induce hypoglycemia in adult male Sprague Dawley rats.
Two hours following glyburide administration, Compound 1 was given by oral gavage and blood glucose was monitored over 5 hours.

[4] = target: T2, human somatostatin receptor subtype 2 (Homo sapiens, UniProt P30874); assay: cAMP assay for SST2R; type: cell-based; conditions: inhibition of cAMP, CHO-K1 cells expressing human SST2; read-out: SST2 potency (EC50; nM)
T2 construct: expressed in transfected cells
Source text: as §1
as §2, with “assay, 5,000” for “assay, 2,000”, “subtype 2” for “subtype 5”, “100 ug/mL” for “100 μg/mL”, “and 0.2” for “and 0.25”, “mg/mL hygromycin B” for “mg/mL G418 Sulfate”, “(GoldBio #31282-04-9).” for “(GoldBio #108321-42-2).”

[5] = test system: major human CYP enzymes; assay: CYP inhibition or induction; type: in vitro ADME; conditions: including CYP2C9 and CYP3A4
[6] = Fasting glucose, insulin and C-peptide, MAD; type: in vivo, human; conditions: 30-120 mg QD for 10 days
Source text: Patients with congenital HI have fasting hypoglycemia due to excess endogenous insulin secretion. Metabolic biomarkers including glucose, insulin, C-peptide, and βhydroxybutyrate will be collected throughout both the SAD and MAD to assess the effect of single and multiple doses of Compound 1.

[7] = single oral dose prior to IV glucose

T1 sequence (P35346 whole entry): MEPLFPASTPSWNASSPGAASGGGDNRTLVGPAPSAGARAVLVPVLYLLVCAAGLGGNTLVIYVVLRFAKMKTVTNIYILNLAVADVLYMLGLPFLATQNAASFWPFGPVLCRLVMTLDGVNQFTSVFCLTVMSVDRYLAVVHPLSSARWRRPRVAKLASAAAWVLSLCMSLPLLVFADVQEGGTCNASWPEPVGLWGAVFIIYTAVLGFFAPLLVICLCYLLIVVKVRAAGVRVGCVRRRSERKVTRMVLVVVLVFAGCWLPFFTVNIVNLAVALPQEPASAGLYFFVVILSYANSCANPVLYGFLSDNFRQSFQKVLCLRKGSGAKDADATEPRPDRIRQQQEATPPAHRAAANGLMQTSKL
T2 sequence (P30874 whole entry): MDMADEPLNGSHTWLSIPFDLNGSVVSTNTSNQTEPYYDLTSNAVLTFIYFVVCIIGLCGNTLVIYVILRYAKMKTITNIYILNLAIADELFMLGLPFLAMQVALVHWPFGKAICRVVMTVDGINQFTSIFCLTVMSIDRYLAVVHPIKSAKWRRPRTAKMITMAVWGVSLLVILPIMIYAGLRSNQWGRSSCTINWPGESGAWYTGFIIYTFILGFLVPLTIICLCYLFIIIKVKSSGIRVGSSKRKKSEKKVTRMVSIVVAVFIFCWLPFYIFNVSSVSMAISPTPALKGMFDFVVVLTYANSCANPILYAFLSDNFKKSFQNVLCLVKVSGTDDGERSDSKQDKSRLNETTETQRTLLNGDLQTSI

C[C@H](NC(=O)c1cnc(C#N)c(-c2cc(F)cc(F)c2)c1N1CC[C@H](N)C1)C(F)(F)F [Compound 1, 4-[(3S)-3-aminopyrrolidin-1-yl]-6-cyano-5-(3,5-difluorophenyl)-N-[(2S)-1,1,1-trifluoropropan-2-yl]pyridine-3-carboxamide]
Fold selectivity for SST5 vs SST2 ([1]; human SST5 vs human SST2, cAMP): >500 fold
EC50 ([1]; inhibition of cAMP, CHO-K1 cells expressing human SST5, read-out: SST5 potency (EC50; nM)): < 1 nM
% reduction in insulin AUC ([2]; 27 mg dose): about 22%
% reduction in insulin AUC ([2]; 60 mg dose): about 40%
% reduction in insulin AUC ([2]; 120 mg dose): about 47%
Insulin secretion in IVGTT [2, 7]: dose-dependently suppressed insulin secretion
Plasma glucose in IVGTT [2, 7]: rapid and sustained increase in plasma glucose levels
Blood glucose levels reached over 5 hours ([3]; 3 mg/kg oral): up to 111 mg/dL
Blood glucose levels reached over 5 hours ([3]; 10 mg/kg oral): ≤ 134 mg/dL
Blood glucose levels reached over 5 hours ([3]; 30 mg/kg oral): ≤ 203 mg/dL
Blood glucose levels compared to vehicle ([3]; oral, 3-30 mg/kg): dose-dependently increased blood glucose levels
Minimum effective dose (significant increase in blood glucose AUC over 5 hours) ([3]; oral, single dose): 10 mg/kg
EC50 [4]: > 100 nM
Potential for inhibition or induction of the major human CYP enzymes [5]: little or no potential for inhibition or induction
Fasting insulin and C-peptide levels [6]: suppressed
Fasting plasma glucose [6]: dose-dependent increase in fasting plasma glucose
